Results published in patent publication US4137313A, “2,5-Dihydro-1,2-thiazino(5,6-b)indole-3-carboxamide-1,1-dioxides and salts thereof” (Boehringer Ingelheim GmbH, priority 1977, dated 1979).

Tests used:
[1] = system: platelet aggregation in platelet-enriched plasma of healthy humans; experiment: BORN-Test, collagen-induced platelet aggregation; assay type: cell-based; conditions: Homo sapiens, vs control, read-out: % decrease in aggregation; for inhibition at 20 µM: 2 × 10^-5 Mol/liter; for inhibition at 2 µM: 2 × 10^-6 Mol/liter; for inhibition at 100 µM: 1 × 10^-4 Mol/liter; for inhibition at 10 µM: 1 × 10^-5 Mol/liter
Procedure: (a) BORN-Test, Collagen-Induced Aggregation
The platelet aggregation was measured according to the method of BORN and CROSS (J. Physiol. 170, pp. 397 [1964]) in platelet-enriched plasma of healthy humans. The decrease in the optical density of the platelet suspension after addition of collagen was measured and registered photometrically. From the angle of inclination of the density curve the rate of aggregation can be determined. […] The quantity of collagen was chosen so that it produced an irreversible control curve.
The indicated values refer to the optical density and signify the percentage change in the light transmission (=% decrease in aggregation) under the influence of the test compound in comparision to the control.
Commercial collagen manufactured by Hormon-Chemie, Munich, Germany, was used.

[2] = system: male and female mice; experiment: Determination of acute toxicity, oral administration; assay type: in vivo; conditions: 1 000 mgm/kg oral, 10 mice; for Dead animals within observation period 1 day: within 1 day; for Dead animals within observation period 7 days: within 7 days; for Dead animals within observation period 14 days: within 14 days
Procedure: (b) Determination of Acute Toxicity
The acute toxicity was determined in male and female mice after oral administration of the test compound as a suspension in tylose.

Row | SMILES | inhibition at 20 µM [1] | inhibition at 2 µM [1] | Dead animals within observation period 1 day [2] | Dead animals within observation period 7 days [2] | Dead animals within observation period 14 days [2] | inhibition at 100 µM [1] | inhibition at 10 µM [1] | inhibition at 1 µM ([1]; 1 × 10^-6 Mol/liter) | inhibition at 50 µM ([1]; 5 × 10^-5 Mol/liter) | inhibition at 5 µM ([1]; 5 × 10^-6 Mol/liter) | inhibition at 0.2 µM ([1]; 2 × 10^-7 Mol/liter)
1 | Cc1nc(NC(=O)C2=C(O)c3c(c4ccccc4n3C)S(=O)(=O)N2C)sc1C [C, 2,5-dihydro-2,5-dimethyl-N-(4,5-dimethyl-2-thiazolyl)-4-hydroxy-1,2-thiazino[5,6-b]indole-3-carboxamide-1,1-dioxide] | 89% | 82% | – | – | – | – | – | – | – | – | –
2 | CN1C(C(=O)Nc2nccs2)=C(O)c2c(c3cc(Cl)ccc3n2C)S1(=O)=O [E, 8-chloro-2,5-dihydro-2,5-dimethyl-4-hydroxy-N-(2-thiazolyl)-1,2-thiazino[5,6-b]indole-3-carboxamide-1,1-dioxide] | – | – | 0 | 0 | 0 | 100% | 86% | 27% | – | – | –
3 | COc1ccc2c(c1)c1c(n2C)C(O)=C(C(=O)Nc2ccccn2)N(C)S1(=O)=O [F, 2,5-dihydro-2,5-dimethyl-4-hydroxy-8-methoxy-N-(2-pyridyl)-1,2-thiazino[5,6-b]indole-3-carboxamide-1,1-dioxide] | – | – | – | – | – | 85% | 43% | – | – | – | –
4 | Cc1cccc(NC(=O)C2=C(O)c3c(c4ccccc4n3C)S(=O)(=O)N2C)n1 [D, 2,5-dihydro-2,5-dimethyl-4-hydroxy-N-(6-methyl-2-pyridyl)-1,2-thiazino[5,6-b]indole-3-carboxamide-1,1-dioxide] | – | – | 0 | 0 | 0 | – | – | – | 86% | 60% | –
5 | Cc1csc(NC(=O)C2=C(O)c3c(c4ccccc4n3C)S(=O)(=O)N2C)n1 [B, 2,5-dihydro-2,5-dimethyl-4-hydroxy-N-(4-methyl-2-thiazolyl)-1,2-thiazino[5,6-b]indole-3-carboxamide-1,1-dioxide] | 100% | 97% | 0 | 0 | 0 | – | – | – | – | – | 42%
6 | CN1C(C(=O)Nc2nccs2)=C(O)c2c(c3ccccc3n2C)S1(=O)=O [A, 2,5-dihydro-2,5-dimethyl-4-hydroxy-N-(2-thiazolyl)-1,2-thiazino[5,6-b]indole-3-carboxamide-1,1-dioxide] | 96% | 81% | 0 | 0 | 0 | – | – | – | – | – | –
